In ChEMBL document CHEMBL1201862, “PubChem BioAssay data set” (2004) one finds EC50, IC50 and AC50 data, which are given here for five molecules.

The nature of assay [1]: C. albicans growth with fluconazole, confirmation, fluorescence, retest (AID 2467). It counts as functional, cell-based.
The nature of assay [2]: Counterscreen for AddAB inhibitors: absorbance-based bacterial cell-based high throughput dose response assay for inhibitors of bacterial viability. [Related pubchem assays (depositor defined):AID435030, AID449728, AID449731, AID488942, AID488955, AID488956]. It counts as functional. In general terms: A counterscreen serves to expose hits that act by an unwanted route or on another target.

The subject of assay [3] is Streptococcus sp. 'group A'. In words: growth inhibition of control SK(-) GAS strain, dose response, counter-screen for streptokinase expression inhibitor project, luminescence, kanamycin, BacTiterGlo, confirmation (AID 1900). Type of assay: functional, organism-based.
Another assay deals with T1, Streptokinase A (Streptococcus pyogenes serotype M1, UniProt P10520).
T1 sequence (P10520 whole entry): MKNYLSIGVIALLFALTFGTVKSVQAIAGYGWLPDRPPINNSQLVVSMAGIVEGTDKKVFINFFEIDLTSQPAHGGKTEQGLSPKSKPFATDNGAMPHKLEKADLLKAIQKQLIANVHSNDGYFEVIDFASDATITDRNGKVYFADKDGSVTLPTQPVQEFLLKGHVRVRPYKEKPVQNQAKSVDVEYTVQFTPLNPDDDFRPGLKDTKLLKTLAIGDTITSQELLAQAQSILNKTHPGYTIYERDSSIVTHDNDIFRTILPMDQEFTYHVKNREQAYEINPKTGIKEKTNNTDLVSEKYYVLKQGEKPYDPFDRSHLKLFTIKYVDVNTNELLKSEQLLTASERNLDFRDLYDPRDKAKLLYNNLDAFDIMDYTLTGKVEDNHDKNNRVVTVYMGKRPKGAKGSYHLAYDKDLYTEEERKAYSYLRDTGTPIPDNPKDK
As to the kind of experiment: S. pyogenes streptokinase expression inhibitors, potency, dose response, plasminogen activation absorbance, OD405 (AID 1914).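 Also: secreted streptokinase activity via plasminogen activation per viability signal from cell pellet.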 It counts as functional, Streptococcus pyogenes M1 GAS.

The target of assay [4] is T2, Replicative DNA helicase DnaB (Mycobacterium tuberculosis, UniProt P9WMR3).
T2 sequence (P9WMR3 whole entry): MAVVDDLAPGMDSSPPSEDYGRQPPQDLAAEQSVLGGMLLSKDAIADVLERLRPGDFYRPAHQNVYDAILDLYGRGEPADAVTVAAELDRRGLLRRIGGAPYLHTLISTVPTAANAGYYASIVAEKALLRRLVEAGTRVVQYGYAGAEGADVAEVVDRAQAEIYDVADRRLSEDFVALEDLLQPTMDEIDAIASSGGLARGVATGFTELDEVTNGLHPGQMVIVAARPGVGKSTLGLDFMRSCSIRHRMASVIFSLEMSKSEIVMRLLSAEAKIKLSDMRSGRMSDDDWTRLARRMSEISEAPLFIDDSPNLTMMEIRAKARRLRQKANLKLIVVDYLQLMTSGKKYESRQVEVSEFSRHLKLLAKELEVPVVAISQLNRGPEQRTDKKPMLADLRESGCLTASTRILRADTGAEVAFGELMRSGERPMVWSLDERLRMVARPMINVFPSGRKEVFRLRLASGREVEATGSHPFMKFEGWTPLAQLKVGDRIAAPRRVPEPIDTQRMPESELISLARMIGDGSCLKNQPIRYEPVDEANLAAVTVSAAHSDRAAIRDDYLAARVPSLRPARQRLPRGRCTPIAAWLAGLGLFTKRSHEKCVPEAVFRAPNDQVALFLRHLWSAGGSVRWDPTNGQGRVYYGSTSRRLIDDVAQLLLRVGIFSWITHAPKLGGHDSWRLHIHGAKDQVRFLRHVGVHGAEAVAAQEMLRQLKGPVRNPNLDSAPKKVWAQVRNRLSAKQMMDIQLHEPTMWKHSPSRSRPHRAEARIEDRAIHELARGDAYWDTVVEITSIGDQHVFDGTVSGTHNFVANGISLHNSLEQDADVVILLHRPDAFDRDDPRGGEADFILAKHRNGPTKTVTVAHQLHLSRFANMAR
As to the kind of experiment: DnaB intein splicing inhibitors, dose response, biochemical, cell-free fluorescence (AID 449749). It counts as functional.

In the next assay the target is T3, Protein RecA (Mycobacterium tuberculosis, UniProt P9WHJ3).
T3 sequence (P9WHJ3 whole entry): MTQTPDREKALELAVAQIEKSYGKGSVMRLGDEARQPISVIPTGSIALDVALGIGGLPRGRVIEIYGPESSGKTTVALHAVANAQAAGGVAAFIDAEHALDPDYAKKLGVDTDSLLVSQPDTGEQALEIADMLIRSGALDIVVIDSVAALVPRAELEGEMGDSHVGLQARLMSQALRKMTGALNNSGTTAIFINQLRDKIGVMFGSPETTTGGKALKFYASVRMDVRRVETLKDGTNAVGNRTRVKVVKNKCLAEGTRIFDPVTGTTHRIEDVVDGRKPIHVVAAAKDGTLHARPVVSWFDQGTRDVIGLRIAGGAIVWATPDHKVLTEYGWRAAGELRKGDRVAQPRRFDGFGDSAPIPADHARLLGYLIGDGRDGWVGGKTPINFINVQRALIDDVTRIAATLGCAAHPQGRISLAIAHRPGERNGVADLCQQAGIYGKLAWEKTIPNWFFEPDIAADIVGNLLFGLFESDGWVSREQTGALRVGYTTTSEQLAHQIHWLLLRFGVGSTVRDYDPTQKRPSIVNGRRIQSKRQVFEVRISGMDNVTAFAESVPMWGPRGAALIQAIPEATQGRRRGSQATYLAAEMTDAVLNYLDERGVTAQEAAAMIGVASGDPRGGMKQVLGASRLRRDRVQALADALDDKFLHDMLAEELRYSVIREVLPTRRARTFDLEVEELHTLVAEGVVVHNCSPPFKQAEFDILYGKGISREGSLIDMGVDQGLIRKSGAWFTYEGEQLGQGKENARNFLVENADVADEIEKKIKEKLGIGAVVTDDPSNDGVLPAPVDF
As to the kind of experiment: Fluorescence Cell-Free Homogeneous Dose Retest to Identify Inhibitors of RecA-Intein Splicing Activity. [Related pubchem assays (depositor defined):AID2097, AID2223, AID489010, AID492950]. It counts as functional.

Calls of active or inactive are those of the source. Rule as the data show it, for most assays here: actives have a measured EC50 and inactives only a lower limit.

The term EC50 denotes the concentration that produces a half-maximal response. In general, IC50 refers to the concentration needed to halve the response being measured. The AC50 is the concentration giving half of the maximal activity seen.

As for `Cn1c(O)c(/C=N/NC(=O)c2cc3ccccc3cc2O)c2ccccc21`, the EC50 in assay [1] was 2.97 µM (active). In assay [2], the IC50 was > 119 µM (inactive).
In the case of `COc1ccc(CC2=CC(=O)c3ccccc3C2=O)cc1`, the concentration for a half-maximal effect (EC50) is 11.4 µM (active) in assay [3], > 150 µM (not active) at Streptokinase A and 3.37 µM (active) on Protein RecA. In assay [4], the AC50 was 7.49 µM (active).
Consider `c1coc(-c2nnc(-c3ccco3)nn2)c1`, for which, in assay [4], the half-maximal activity concentration (AC50) is 5.79 µM (active). Besides, the EC50 on Protein RecA is 7.01 µM (active).
In the case of `O=C(Nc1cccc(NC(=O)c2ccccc2Cl)c1)c1ccc([N+](=O)[O-])o1`, the EC50 in assay [3] is 4.47 µM (active); on Streptokinase A it was > 150 µM (not active); in assay [1] it was 2.84 µM (active). Also, in assay [2], the IC50 is > 119 µM (inactive).
On to `Oc1cc(-c2cccc3ccccc23)[nH]n1`, for which the AC50 in assay [4] was 2.39 µM (active). Further, on Protein RecA, the half-maximal effective concentration (EC50) is 0.834 µM (active).
